Measurements taken from US9316633B2, “Methods for identifying inhibitors of solute transporters” (The Regents of the University of California, priority 2006, dated 2016).

target: T1, UT-B (Homo sapiens, UniProt Q13336); assay: RBC lysis assay, human RBCs loaded with acetamide; type: cell-based; conditions: Table 5, phthalazinamines; UT-B inhibitory potency
T1 construct: the indicator cells are red blood cells that endogenously express the UT-B urea transporter; endogenous in cells; host or cells: human red blood cells (whole venous blood, single donor)
T1 sequence (Q13336 1-389): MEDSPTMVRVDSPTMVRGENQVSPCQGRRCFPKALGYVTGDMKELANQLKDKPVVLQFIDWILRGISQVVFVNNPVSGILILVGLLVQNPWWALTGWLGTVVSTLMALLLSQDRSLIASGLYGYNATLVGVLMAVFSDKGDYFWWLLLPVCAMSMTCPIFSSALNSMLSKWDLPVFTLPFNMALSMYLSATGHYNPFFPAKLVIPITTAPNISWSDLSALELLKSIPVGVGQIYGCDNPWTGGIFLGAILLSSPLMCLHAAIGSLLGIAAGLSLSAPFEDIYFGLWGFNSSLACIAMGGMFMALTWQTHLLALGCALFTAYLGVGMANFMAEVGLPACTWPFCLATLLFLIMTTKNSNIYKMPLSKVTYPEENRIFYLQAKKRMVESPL

Row | Compound | EC50
1 | COc1ccc(Nc2nnc(-c3ccc(C(N)=O)cc3)c3ccccc23)cc1 [ureainh-301, 4-(4-(4-methoxyphenylamino)phthalazin-1-yl)benzamide] | 100 nM
2 | CN(C)C(=O)c1ccc(Nc2nnc(-c3ccc(C(N)=O)cc3)c3ccccc23)cc1 [ureainh-303, 4-(4-(4-carbamoylphenyl)phthalazin-1-ylamino)-N,N-dimethylbenzamide] | 200 nM
3 | NC(=O)c1ccc(-c2nnc(Nc3ccc(O)cc3)c3ccccc23)cc1 [ureainh-306, 4-(4-(4-hydroxyphenylamino)phthalazin-1-yl)benzamide] | 2000 nM
4 | CCN(CC)C(=O)c1ccc(-c2nnc(Nc3ccc(C(=O)NC)cc3)c3ccccc23)cc1 [ureainh-308, N,N-diethyl-4-(4-(4-(methylcarbamoyl)phenylamino)phthalazin-1-yl)benzamide] | 2000 nM
5 | CCN(CC)C(=O)c1ccc(-c2nnc(Nc3ccc(C(=O)N(C)C)cc3)c3ccccc23)cc1 [ureainh-310, 4-(4-(4-(diethylcarbamoyl)phenyl)phthalazin-1-ylamino)-N,N-dimethylbenzamide] | 3000 nM
6 | COc1ccc(-c2nnc(Nc3ccc(OCC(N)=O)cc3)c3ccccc23)cc1 [ureainh-312, 2-(4-(4-(4-methoxyphenyl)phthalazin-1-ylamino)phenoxy)acetamide] | 1000 nM
7 | Cc1ccc(-c2nnc(Nc3ccc(OCC(N)=O)cc3)c3ccccc23)cc1 [ureainh-314, 2-(4-(4-p-tolylphthalazin-1-ylamino)phenoxy) acetamide] | 2000 nM
8 | CNC(=O)COc1ccc(Nc2nnc(-c3ccc(C)cc3)c3ccccc23)cc1 [ureainh-315, N-methyl-2-(4-(4-p-tolylphthalazin-1-ylamino)phenoxy)acetamide] | 2000 nM
9 | COc1ccc(Nc2nnc(-c3ccc(O)cc3)c3ccccc23)cc1 [ureainh-316, 4-(4-(4-methoxyphenylamino)phthalazin-1-yl)phenol] | 2000 nM
10 | CC(=O)Nc1ccc(Nc2nnc(-c3ccc(O)cc3)c3ccccc23)cc1 [ureainh-317, N-(4-(4-(4-hydroxyphenyl)phthalazin-1-ylamino)phenyl)acetamide] | 3000 nM
11 | NC(=O)COc1ccc(Nc2nnc(-c3ccccc3)c3ccccc23)cc1 [ureainh-318, 2-(4-(4-phenylphthalazin-1-ylamino)phenoxy) acetamide] | 2000 nM
12 | Cc1ccc(-c2nnc(Nc3ccc(C(N)=O)cc3)c3ccccc23)cc1S(=O)(=O)N(C)C [ureainh-321, 4-(4-(3-(N,N-dimethylsulfamoyl)-4-methylphenyl)phthalazin-1-ylamino) benzamide] | 1000 nM
13 | Cc1ccc(-c2nnc(Nc3ccc(OCC(N)=O)cc3)c3ccccc23)cc1S(=O)(=O)N(C)C [ureainh-322, 2-(4-(4-(3-(N,N-dimethylsulfamoyl)-4-methylphenyl)phthalazin-1-ylamino)phenoxy)acetamide] | 2000 nM
14 | COC(=O)c1ccc(Nc2nnc(-c3ccc(C)c(S(=O)(=O)NCCO)c3)c3ccccc23)cc1 [ureainh-323, methyl 4-(4-(3-(N-(2-hydroxyethyl)sulfamoyl)-4-methylphenyl)phthalazin-1-ylamino) benzoate] | 2000 nM
15 | Cc1ccc(-c2nnc(Nc3ccc(C(N)=O)cc3)c3ccccc23)cc1S(=O)(=O)NCCO [ureainh-324, 4-(4-(3-(N-(2-hydroxyethyl)sulfamoyl)-4-methylphenyl)phthalazin-1-ylamino) benzamide] | 5000 nM
16 | CNS(=O)(=O)c1cc(-c2nnc(Nc3ccc(OCC(N)=O)cc3)c3ccccc23)ccc1C [ureainh-325, 2-(4-(4-(4-methyl-3-(N-methylsulfamoyl)phenyl)phthalazin-1-ylamino)phenoxy)acetamide] | 2000 nM
17 | CNC(=O)COc1ccc(Nc2nnc(-c3ccc(C)c(S(=O)(=O)NC)c3)c3ccccc23)cc1 [ureainh-326, N-methyl-2-(4-(4-(4-methyl-3-(N-methylsulfamoyl)phenyl)phthalazin-1-ylamino)phenoxy) acetamide] | 2000 nM
18 | CNC(=O)COc1ccc(Nc2nnc(-c3ccc(C)c(S(N)(=O)=O)c3)c3ccccc23)cc1 [ureainh-330, N-methyl-2-(4-(4-(4-methyl-3-sulfamoylphenyl)phthalazin-1-ylamino)phenoxy)acetamide] | 10000 nM
19 | Cc1ccc(-c2nnc(Nc3ccc(O)cc3)c3ccccc23)cc1S(=O)(=O)NC(C)(C)CO [ureainh-331, N-(1-hydroxy-2-methylpropan-2-yl)-5-(4-(4-hydroxyphenylamino)phthalazin-1-yl)-2-methylbenzenesulfonamide] | 9000 nM

More lines, now with the values ahead:

Row | EC50 | Compound
20 | 600 nM | CNC(=O)c1ccc(Nc2nnc(-c3ccc(C(N)=O)cc3)c3ccccc23)cc1 [ureainh-304, 4-(4-(4-carbamoylphenyl)phthalazin-1-ylamino)-N-methylbenzamide]
21 | 3000 nM | NC(=O)c1ccc(-c2nnc(Nc3ccc(S(N)(=O)=O)cc3)c3ccccc23)cc1 [ureainh-307, 4-(4-(4-sulfamoylphenylamino)phthalazin-1-yl)benzamide]
22 | 5000 nM | CCN(CC)C(=O)c1ccc(-c2nnc(Nc3ccc(O)cc3)c3ccccc23)cc1 [ureainh-309, N,N-diethyl-4-(4-(4-hydroxyphenylamino)phthalazin-1-yl)benzamide]
23 | 800 nM | CNC(=O)COc1ccc(Nc2nnc(-c3ccc(C(=O)NCCO)cc3)c3ccccc23)cc1 [ureainh-311, N-(2-hydroxyethyl)-4-(4-(4-(2-(methylamino)-2-oxoethoxy)phenylamino)phthalazin-1-yl)benzamide]
24 | 10000 nM | COc1ccc(-c2nnc(Nc3ccc(-c4nc5ccccc5[nH]4)cc3)c3ccccc23)cc1 [ureainh-313, N-(4-(1H-benzo[d]imidazol-2-yl)phenyl)-4-(4-methoxyphenyl) phthalazin-1-amine]
25 | 3000 nM | CNC(=O)COc1ccc(Nc2nnc(-c3ccccc3)c3ccccc23)cc1 [ureainh-319, N-methyl-2-(4-(4-phenylphthalazin-1-ylamino)phenoxy)acetamide]
26 | 4000 nM | COc1ccc(Nc2nnc(-c3ccccc3)c3ccccc23)cc1 [ureainh-320, N-(4-methoxyphenyl)-4-phenylphthalazin-1-amine]
27 | 3000 nM | Cc1ccc(-c2nnc(Nc3ccc(O)cc3)c3ccccc23)cc1S(=O)(=O)N1CCOCC1 [ureainh-328, 4-(4-(4-methyl-3-(morpholinosulfonyl)phenyl)phthalazin-1-ylamino)phenol]
28 | 5000 nM | Cc1ccc(-c2nnc(Nc3ccc(C(N)=O)cc3)c3ccccc23)cc1S(N)(=O)=O [ureainh-329, 4-(4-(4-methyl-3-sulfamoylphenyl)phthalazin-1-ylamino) benzamide]
29 | 2000 nM | COc1ccc(-c2nnc(Oc3ccccc3)c3ccccc23)cc1 [ureainh-332, 1-(4-methoxyphenyl)-4-phenoxyphthalazine]
30 | 3000 nM | Cc1ccc(-c2nnc(Oc3ccccc3)c3ccccc23)cc1 [ureainh-333, 1-phenoxy-4-p-tolylphthalazine]

same assay, conditions: Table 7, aminobenzimidazoles; UT-B inhibitory potency

Row | EC50 | Compound
31 | 300 nM | CCCn1c(NCc2cc(Cl)ccc2O)nc2ccccc21 [ureainh-401, 4-chloro-2-((1-propyl-1H-benzo[d]imidazol-2-ylamino)methyl)phenol]
32 | 400 nM | CCn1c(NCc2cc(Cl)ccc2O)nc2ccccc21 [ureainh-402, 4-chloro-2-((1-ethyl-1H-benzo[d]imidazol-2-ylamino)methyl)phenol]
